The values below come from patent US6583154B1, “Compounds and methods which modulate feeding behavior and related diseases” (Amgen Inc., priority 1998, dated 2003).

Where a name gives a salt, the structure may show the parent alone.

The subject of the first data set is Long-Evans male rats. Kind of data set: IP administration of compounds in fasted Long-Evans male rats, 2 hr food intake. As to conditions: Rattus norvegicus; male Long Evans rats fasted 18-20 hr; 30 mg/kg (ip) in 2% tween; food given after 30 min, weighed 2 hr later; vs vehicle; read-out: inhibition of feeding (2 hr food intake). Format: in vivo. As to the method: Protocol for IP Administration of Compounds in Fasted Long-Evans Male Rats
Male Long Evans rats (85-100 g)were obtained from Harlan (Indianapolis, Ind.) and were given at least a one week acclimation period to Ambients animal care facilities. Animals were individually housed and were provided ad libitum food and water. For testing, rats were fasted for 18-20 hr (overnight) prior to the start of the experiment. On the test day, test compounds or vehicle was administered via the intraperitoneal (i.p.) route of administration. Test compounds were suspended in a 2% tween solution; the 2% tween solution was used as the vehicle treatment (control group). Group sizes for each treatment were 6-8 animals. After 30 min, premeasured food was placed into the cages. Two hours later, the food was weighed again. The difference between 2 hr weight and the premeasured weight was taken as 2 hr food intake.
Turning to `Cc1nc(N2CCCCC2)c2[nH]c(-c3cccc(Cl)c3)cc2n1` [Example 70e, 6-(3-Chlorophenyl)-2-methyl-4-piperidylpyrrolo[3,2-d]pyrimidine Hydrochloride Monohydrate], the inhibition in vivo at 30 mg/kg was at least 10%.

For `Cc1nc(N2CCCCC2)c2[nH]c(-c3ccccc3)c(C)c2n1` [Example 90, 2,7-Dimethyl-6-phenyl-4-piperidylpyrrolo[3,2-d]pyrimidine Hydrochloride Monohydrate], the inhibition in vivo at 30 mg/kg is at least 10%.

Take `Cc1nc(N2CCCCC2)c2[nH]c(-c3ccccc3F)cc2n1` [Example 102, 6-(2-Fluorophenyl)-2-methyl-4-piperidylpyrrolo[3,2-d]pyrimidine Hydrochloride Monohydrate]: the inhibition in vivo at 30 mg/kg was at least 10%.

Consider `Cc1nc(N2CCCCC2)c2[nH]c(C)cc2n1` [Example 104, 2,6-Dimethyl-4-piperidylpyrrolo[3,2-d]pyrimidine Hydrochloride Hydrate], for which the inhibition in vivo at 30 mg/kg is at least 10%.

`COc1ccc(-c2cc3nc(C)nc(N4CCCCC4)c3[nH]2)cc1OC` [Example 126, 1,2-Dimethoxy-4-(2-methyl-4-piperidylpyrrolo[4,5-d]pyrimidin-6-yl)benzene Hydrochloride Hydrate]: the inhibition in vivo at 30 mg/kg was at least 10%.

Turning to `Cc1nc(N2CCCCC2)c2[nH]c(-c3ccc4c(c3)Cc3ccccc3-4)cc2n1` [Example 127, 6-Fluoren-2-yl-2-methyl-4-piperidylpyrrolo[3,2-d]pyrimidine Hydrochloride Hydrate], the inhibition in vivo at 30 mg/kg is at least 10%.

For the molecule `Cc1nc(N2CCCCC2)c2[nH]c(-c3ccc(F)cc3)c(C)c2n1` [Example 134, 6-(4-Fluorophenyl)-2,7-dimethyl-4-piperidylpyrrolo[3,2-d]pyrimidine Hydrochloride Hydrate], the inhibition in vivo at 30 mg/kg is at least 10%.

In the case of `Cc1nc(N2CCCCC2)c2[nH]c(-c3ccc(O)cc3)c(C)c2n1` [Example 137, 4-[2,7-Dimethyl-4-piperidylpyrrolo[4,5-d]pyrimidin-6-yl]phenol Hydrochloride Hydrate], the inhibition in vivo at 30 mg/kg was at least 10%.

Turning to `Cc1nc(N2CCOCC2)c2[nH]c(-c3ccc(F)c(F)c3)cc2n1` [Example 141, 4-[6-(3,4-Difluorophenyl)-2-methylpyrrolo[2,3-e]pyrimidin-4-yl]morpholine Hydrochloride], the inhibition in vivo at 30 mg/kg was at least 10%.

As for `Cc1nc(N2CCCCC2)c2[nH]c(-c3ccc(S(C)(=O)=O)cc3)cc2n1` [Example 142, 1-[2-Methyl-4-piperidylpyrrolo[4,5-d]pyrimidin-6-yl]-4-(methylsulfonyl)benzene Hydrochloride Monohydrate], the inhibition in vivo at 30 mg/kg was at least 10%.

`CCCCc1cc2nc(C)nc(N3CCCCC3)c2[nH]1` [Example 148, 6-Butyl-2-methyl-4-piperidylpyrrolo[3,2-d]pyrimidine Hydrochloride]: the inhibition in vivo at 30 mg/kg was at least 10%.

System in another data set: not given
Experiment: not given
Conditions: not given
By melting point is commonly meant the temperature, or range, at which the solid turns liquid. Molecule `COc1ccc(-c2cc3nc(C)nc(N4CCCCC4)c3[nH]2)cc1F.Cl` (hydrate or solvate) [Example 119, 2-Fluoro-1-methoxy-4-[2-methyl-4-piperidylpyrrolo[4,5-d]pyrimidin-6-yl]benzene Hydrochloride Hydrate] returned a melting point of 262 to 264 °C.

For `Cc1nc(N2CCCCC2)c2[nH]c(-c3ccc(F)c(F)c3)cc2n1.Cl` (hydrate or solvate) [Example 121, 6-(3,4-Difluorophenyl)-2-methyl-4-piperidylpyrrolo[3,2-d]pyrimidine Hydrochloride Hydrate], the melting point lay in the range of 243 to 245 °C.

On to `Cc1nc(N2CCCCC2)c2[nH]c(-c3ccc(SC(F)(F)F)cc3)cc2n1.Cl` (hydrate or solvate) [Example 123, Trifluoro[4-(2-methyl-4-piperidylpyrrolo[4,5-d]pyrimidin-6-yl)phenylthio]methane Hydrochloride Monohydrate], for which the melting point lay in the range of 270 to 272 °C.

Molecule `Cc1nc(N2CCCCC2)c2[nH]c(-c3ccc(C)c(C)c3)cc2n1.Cl` (hydrate or solvate) [Example 124, 6-(3,4-Dimethylphenyl)-2-methyl-4-piperidylpyrrolo[3,2-d]pyrimidine Hydrochloride Hydrate] showed a melting point of 198 to 201 °C.

`Cc1nc(N2CCCCC2)c2[nH]c(-c3ccc4c(c3)OCCO4)cc2n1.Cl` (hydrate or solvate) [Example 125, 6-(2-Methyl-4-piperidylpyrrolo[4,5-d]pyrimidin-6-yl)-2H,3H-benzo[e]1,4-dioxane Hydrochloride Monohydrate] had a melting point of over 280 °C.

On to `COc1ccc(-c2cc3nc(C)nc(N4CCCCC4)c3[nH]2)cc1OC.Cl` (hydrate or solvate) [Example 126, 1,2-Dimethoxy-4-(2-methyl-4-piperidylpyrrolo[4,5-d]pyrimidin-6-yl)benzene Hydrochloride Hydrate], for which the melting point fell in the range of 268 to 270 °C.

For `Cc1nc(N2CCCCC2)c2[nH]c(-c3ccc4c(c3)Cc3ccccc3-4)cc2n1.Cl` (hydrate or solvate) [Example 127, 6-Fluoren-2-yl-2-methyl-4-piperidylpyrrolo[3,2-d]pyrimidine Hydrochloride Hydrate], the melting point is over 280 °C.

The molecule `Cc1nc(N2CCCCC2)c2[nH]c(-c3ccc4c(c3)CCC4)cc2n1.Cl` (hydrate or solvate) [Example 130, 6-Indan-5-yl-2-methyl-4-piperidylpyrrolo[3,2-d]pyrimidine Hydrochloride Monohydrate] yielded a melting point of 164 to 167 °C.

`Cc1nc(N2CCCCC2)c2[nH]c(-c3ccc4c(c3)CCO4)cc2n1.Cl` (hydrate or solvate) [Example 131, 5-[2-Methyl-4-piperidylpyrrolo[4,5-d]pyrimidin-6-yl]-2,3-dihydrobenzo[b]furan Hydrochloride Hydrate] displayed a melting point of 170 to 172 °C.

Molecule `Cc1nc(N2CCCCC2)c2[nH]c(-c3ccc(F)cc3)c(C)c2n1.Cl` (hydrate or solvate) [Example 134, 6-(4-Fluorophenyl)-2,7-dimethyl-4-piperidylpyrrolo[3,2-d]pyrimidine Hydrochloride Hydrate] yielded a melting point of over 280 °C.

Take `Cc1nc(N2CCCCC2)c2[nH]c(-c3ccc(O)cc3)c(C)c2n1.Cl` (hydrate or solvate) [Example 137, 4-[2,7-Dimethyl-4-piperidylpyrrolo[4,5-d]pyrimidin-6-yl]phenol Hydrochloride Hydrate]: the melting point is over 280 °C.

`Cc1nc(N2CCCCC2)c2[nH]c(-c3ccc(S(C)(=O)=O)cc3)cc2n1.Cl` (hydrate or solvate) [Example 142, 1-[2-Methyl-4-piperidylpyrrolo[4,5-d]pyrimidin-6-yl]-4-(methylsulfonyl)benzene Hydrochloride Monohydrate] displayed a melting point of 279 to 281 °C.

With `Cc1nc(N2CCCCC2)c2[nH]c(-c3ccc4ccccc4c3)cc2n1.Cl` (hydrate or solvate) [Example 160, 2-Methyl-6-(2-naphthyl)-4-piperidylpyrrolo[3,2-d]pyrimidine Hydrochloride Hydrate], the melting point is over 280 °C.

For `Cc1nc(N2CCCCC2)c2[nH]c(CCc3ccccc3)cc2n1.Cl` (hydrate or solvate) [Example 168, 2-Methyl-6-(2-phenylethyl)-4-piperidylpyrrolo[3,2-d]pyrimidine Hydrochloride Hydrate], the melting point was 236 to 238 °C.

In turn, `Cc1nc(N2CCCCCC2)c2[nH]c(-c3ccccc3)cc2n1` [Example 8, 4-Homopiperidyl-2-methyl-6-phenylpyrrolo[3,2-d]pyrimidine] had a melting point of 209 to 210 °C.

Regarding `Cc1nc(NCc2ccc(C)o2)c2[nH]c(-c3ccccc3)cc2n1` [Example 17], the melting point lay within 125 to 127.5 °C.

In turn, `CC(C)c1nc(N2CCCCC2)c2[nH]c(-c3ccccc3)cc2n1` [Example 19d, 2-Isopropyl-6-phenyl-4-piperidylpyrrolo[3,2-d]pyrimidine] displayed a melting point of 269.5 to 272 °C.

The molecule `Cc1nc(N2CCNCC2)c2[nH]c(-c3ccccc3)cc2n1` [Example 26, 2-methyl-6-phenyl-4-piperazinylpyrrolo[3,2-d]pyrimidine] came in with a melting point of 236 °C.

With `Cc1nc(NCc2ccccc2)c2[nH]c(-c3ccccc3)cc2n1` [Example 29, (2-Methyl-6-phenylpyrrolo[2,3-e]pyrimidin-4-yl)benyzlamine], the melting point lay in the range of 275 to 276.5 °C.

The molecule `Cc1nc(N2CCCCC2)c2c(cc(-c3ccccc3)n2C)n1` [Example 36, 2,5-Dimethyl-6-phenyl-4-piperidylpyrrolo[3,2-d]pyrimidine] came in with a melting point of 131 to 132 °C.

With `c1ccc(-c2nc(N3CCCCC3)c3[nH]c(-c4ccccc4)cc3n2)cc1` [Example 45d, 2,6-Diphenyl-4-piperidylpyrrolo[3,2-d]pyrimidine], the melting point was in the range of 259 to 261.5 °C.

Molecule `CC(=O)c1c(-c2ccccc2)[nH]c2c(N3CCCCC3)nc(C)nc12` [Example 49, 7-Acetyl-2-methyl-6-phenyl-4-piperidylpyrrolo[3,2-d]pyrimidine] returned a melting point of 188 to 190 °C.

Consider `Cc1nc(N2CCCCC2)c2[nH]c(-c3cc(C(F)(F)F)cc(C(F)(F)F)c3)cc2n1.Cl` [Example 122], for which the melting point is over 280 °C.

The molecule `Cc1c(-c2ccccc2)n(C)c2c(N3CCCCC3)ncnc12` [Example 155, 5,7-Dimethyl-6-phenyl-4-piperidylpyrrolo[3,2-d]pyrimidine] yielded a melting point of 123 to 125 °C.

Consider `Cc1nc(N2CCCCC2)c2[nH]c(-c3ccccc3)cc2[n+]1[O-]` [Example 184, 2-Methyl-6-phenyl-4-piperidylpyrrolo[3,2-d]pyrimidin-1-ol], for which the melting point was in the range of 169 to 170 °C.
